Laboratory results published in patent US7244855B2, “Synthesis of oligomeric epicatechin and catechin-derived procyanidins” (Mars, Inc., priority 2002, dated 2007).

What was measured:
[1] = system: MDA MB-231 human breast cancer cells; experiment: Cell cycle analysis by flow cytometry (Vindelov method); format: cell-based; details: for Effect on cell cycle (G0/G1 arrest), in words: procyanidin-treated MDA MB-231 cells, see Table 1; for Increase in G0/G1 arrest, synthetic compared to natural procyanidin: see Table 2
Procedure: The MDA MB-231 cell line was P53 defective, ER negative, and constitutively expressed K-ras. Cells were cultured in T-75s in IMEM medium (BioFluids Inc.) supplemented with 10% FBS (Gibco BRL Life Technologies) in a humidified 5% CO2 atmosphere at 37° C. […] See Vindelov, L. et al., “A Detergent Trypsin Method for the Preparation of Nuclei for Flow Cytometric DNA Analysis”, Cytometry, 1983, 3, 323–327. Analyses were performed by the Lombardi Cancer Center Flow Cytometry Core Facility at Georgetown University Medical Center.

[2] = system: human breast cancer cell lines; experiment: Cytotoxicity assay (microculture tetrazolium assay modified for crystal violet); format: cell-based
Procedure: The human breast cancer cell lines MCF-7, SKBR-3, MDA 435, and MDA MB-231 were obtained from the Lombardi Cancer Center Cell Culture Core Facility at Georgetown University Medical Center. The MDA MB-231 cell line was P53 defective, ER negative, and constitutively expressed K-ras. Cells were cultured in T-75s in IMEM medium (BioFluids Inc.) supplemented with 10% FBS (Gibco BRL Life Technologies) in a humidified 5% CO2 atmosphere at 37° C.
Cytotoxicity assays were performed on several human breast cancer cell lines treated with test compounds in a 96 well microtiter plate format using the microculture tetrazolium assay^28 modified for use with crystal violet rather than MTT. Briefly, 1–2×10^3 cells were added per well and allowed to culture in a humidified, 5% CO2 atmosphere until they reached approximately 50% confluence. Sterile filtered test compounds were added at various concentrations, and the plates were allowed to culture for an additional 12–36 hours. The growth medium was then removed, and each well was washed twice with 200 μL each of pH 7.4 PBS. […] At the end of 1 hour, the plates were scanned at 570 nm (ref. 405 nm) with a Molecular Devices Corporation microtiter plate reader, and the data was recorded with the SOFTMAX software program. The average of 3 readings was taken for each blank, control, vehicle, and test concentration for statistical data manipulation.

[3] = Table 1, procyanidins purified from cocoa, 200 μg/mL, 24 hrs
[4] = Table 2, natural versus synthetic, 200 μg/mL, 24 hr
[5] = Table 3, 100 μM H2O2 + catalase, 24 hr
[6] = Table 3, 100 μM H2O2 + heat inactivated catalase, 24 hr
[7] = Table 3, 200 μg/mL + 100 μM H2O2 + catalase, 24 hr
[8] = Table 3, 200 μg/mL + 100 μM H2O2 + heat inactivated catalase, 24 hr
[9] = Table 3, 200 μg/mL + 100 μM H2O2, 24 hr
[10] = Table 3, 200 μg/mL + catalase, 24 hr
[11] = Table 3, 200 μg/mL + heat inactivated catalase, 24 hr

Structure (SMILES): Oc1cc(O)c2c(c1)O[C@H](c1ccc(O)c(O)c1)[C@H](O)[C@H]2c1c(O)cc(O)c2c1O[C@H](c1ccc(O)c(O)c1)[C@H](O)[C@H]2c1c(O)cc(O)c2c1O[C@H](c1ccc(O)c(O)c1)[C@H](O)C2 [Natural trimer, epicatechin (4β,8)2-trimer]
- % G0/G1 [1, 3]: 43.22%
- % G2/M [1, 3]: 20.80%
- % S [1, 3]: 35.98%
- % G0/G1 [1, 4]: 28.46%
- % G2/M [1, 4]: 23.05%
- % S [1, 4]: 48.49%
- Effect on cell cycle (G0/G1 arrest), in words [1]: no effect

Structure (SMILES): OO [H2O2, hydrogen peroxide, reference compound]
- % G0/G1 [1, 5]: 35.20%
- % G2/M [1, 5]: 21.86%
- % S [1, 5]: 42.93%
- % G0/G1 [1, 6]: 20.27%
- % G2/M [1, 6]: 34.25%
- % S [1, 6]: 45.48%
- % G0/G1 ([1]; Table 3, 100 μM H2O2, 24 hr): 20.32%
- % G2/M ([1]; Table 3, 100 μM H2O2, 24 hr): 34.76%
- % S ([1]; Table 3, 100 μM H2O2, 24 hr): 44.92%
- Effect of hydrogen peroxide on cell cycle, in words ([1]; hydrogen peroxide at levels reported in the literature, see Table 3): shift in the cell cycle to G2/M with a decrease in G0/G1

Structure (SMILES): Oc1cc(O)c2c(c1)O[C@H](c1ccc(O)c(O)c1)[C@H](O)[C@H]2c1c(O)cc(O)c2c1O[C@H](c1ccc(O)c(O)c1)[C@H](O)[C@H]2c1c(O)cc(O)c2c1O[C@H](c1ccc(O)c(O)c1)[C@H](O)[C@H]2c1c(O)cc(O)c2c1O[C@H](c1ccc(O)c(O)c1)[C@H](O)C2 [Synthetic tetramer, epicatechin (4β,8)3-tetramer]
- Increase in G0/G1 arrest, synthetic compared to natural procyanidin ([1]; 200 μg/mL, 24 hr): approximately 15%
- % G0/G1 [1, 4]: 43.49%
- % G2/M [1, 4]: 17.03%
- % S [1, 4]: 39.39%

Structure (SMILES): Oc1cc(O)c2c(c1)O[C@H](c1ccc(O)c(O)c1)[C@H](O)[C@H]2c1c(O)cc(O)c2c1O[C@H](c1ccc(O)c(O)c1)[C@H](O)[C@H]2c1c(O)cc(O)c2c1O[C@H](c1ccc(O)c(O)c1)[C@H](O)[C@H]2c1c(O)cc(O)c2c1O[C@H](c1ccc(O)c(O)c1)[C@H](O)[C@H]2c1c(O)cc(O)c2c1O[C@H](c1ccc(O)c(O)c1)[C@H](O)C2 [Synthetic pentamer, epicatechin (4β,8)4-pentamer]
- Increase in G0/G1 arrest, synthetic compared to natural procyanidin ([1]; 200 μg/mL, 24 hr): approximately 30%
- % G0/G1 [1, 4]: 64.15%
- % G2/M [1, 4]: 12.49%
- % S [1, 4]: 23.36%
- Cell growth inhibition ([2]; several breast cancer cell lines): inhibited cell growth

Structure (SMILES): Oc1cc(O)c2c(c1)O[C@H](c1ccc(O)c(O)c1)[C@H](O)[C@H]2c1c(O)cc(O)c2c1O[C@H](c1ccc(O)c(O)c1)[C@H](O)[C@H]2c1c(O)cc(O)c2c1O[C@H](c1ccc(O)c(O)c1)[C@H](O)C2 [Synthetic trimer, epicatechin (4β,8)2-trimer]
- Increase in G0/G1 arrest, synthetic compared to natural procyanidin ([1]; 200 μg/mL, 24 hr): No difference in activity
- % G0/G1 [1, 4]: 26.98%
- % G2/M [1, 4]: 23.45%
- % S [1, 4]: 49.57%

Structure (SMILES): Oc1cc(O)c2c(c1)O[C@H](c1ccc(O)c(O)c1)[C@H](O)[C@H]2c1c(O)cc(O)c2c1O[C@H](c1ccc(O)c(O)c1)[C@H](O)[C@H]2c1c(O)cc(O)c2c1O[C@H](c1ccc(O)c(O)c1)[C@H](O)[C@H]2c1c(O)cc(O)c2c1O[C@H](c1ccc(O)c(O)c1)[C@H](O)[C@H]2c1c(O)cc(O)c2c1O[C@H](c1ccc(O)c(O)c1)[C@H](O)C2 [Pentamers, epicatechin (4β,8)4-pentamer]
- % G0/G1 [1, 7]: 48.20%
- % G2/M [1, 7]: 20.68%
- % S [1, 7]: 31.12%
- % G0/G1 [1, 8]: 39.47%
- % G2/M [1, 8]: 37.14%
- % S [1, 8]: 23.39%
- % G0/G1 [1, 9]: 42.67%
- % G2/M [1, 9]: 38.71%
- % S [1, 9]: 18.63%
- % G0/G1 [1, 10]: 41.23%
- % G2/M [1, 10]: 20.12%
- % S [1, 10]: 39.65%
- % G0/G1 [1, 11]: 42.89%
- % G2/M [1, 11]: 17.68%
- % S [1, 11]: 39.43%
- % G0/G1 ([1]; Table 3, 200 μg/mL, 24 hr): 44.94%
- % G2/M ([1]; Table 3, 200 μg/mL, 24 hr): 17.05%
- % S ([1]; Table 3, 200 μg/mL, 24 hr): 38.01%
- Effect on cell cycle (G0/G1 arrest), in words [1]: caused a G0/G1 arrest
- Cytotoxicity to human breast cancer cell lines ([2]; purified from cocoa polyphenol extracts or prepared synthetically): cytotoxicity to human breast cancer cell lines

Structure (SMILES): Oc1cc(O)c2c(c1)O[C@H](c1ccc(O)c(O)c1)[C@H](O)[C@H]2c1c(O)cc(O)c2c1O[C@H](c1ccc(O)c(O)c1)[C@H](O)[C@H]2c1c(O)cc(O)c2c1O[C@H](c1ccc(O)c(O)c1)[C@H](O)[C@H]2c1c(O)cc(O)c2c1O[C@H](c1ccc(O)c(O)c1)[C@H](O)[C@H]2c1c(O)cc(O)c2c1O[C@H](c1ccc(O)c(O)c1)[C@H](O)C2 [Natural pentamer, epicatechin (4β,8)4-pentamer]
- % G0/G1 [1, 4]: 45.99%
- % G2/M [1, 4]: 15.76%
- % S [1, 4]: 38.25%

Structure (SMILES): Oc1cc(O)c2c(c1)O[C@H](c1ccc(O)c(O)c1)[C@H](O)[C@H]2c1c(O)cc(O)c2c1O[C@H](c1ccc(O)c(O)c1)[C@H](O)[C@H]2c1c(O)cc(O)c2c1O[C@H](c1ccc(O)c(O)c1)[C@H](O)[C@H]2c1c(O)cc(O)c2c1O[C@H](c1ccc(O)c(O)c1)[C@H](O)C2 [Natural tetramer, epicatechin (4β,8)3-tetramer]
- % G0/G1 [1, 3]: 51.46%
- % G2/M [1, 3]: 20.30%
- % S [1, 3]: 28.25%
- % G0/G1 [1, 4]: 36.82%
- % G2/M [1, 4]: 19.02%
- % S [1, 4]: 43.37%
- Effect on cell cycle (G0/G1 arrest), in words [1]: only a slight effect
